Measured values: the NIST ThermoML archive (doi:10.1021/acs.jced.7b00604)
Numbers after ± are expanded uncertainties.

Experiments:
[1] = 100 kPa, Liquid; for speed of sound: Frequency=3 MHz, Sing-around technique in a fixed-path interferometer; for mass density: Vibrating tube method
[2] = molar heat capacity at constant pressure; details: 100 kPa, Liquid, Extra sensitive DSC
[3] = xn = mol fraction of the nth substance listed; details: 100 kPa, Liquid, x1 = 1; for speed of sound: Frequency=3 MHz, Sing-around technique in a fixed-path interferometer; for mass density: Vibrating tube method

SMILES	speed of sound ([1]; 298.15 K)	mass density ([1]; 298.15 K)	speed of sound ([1]; 303.15 K)	mass density ([1]; 303.15 K)	speed of sound ([1]; 308.15 K)	mass density ([1]; 308.15 K)	speed of sound ([1]; 313.15 K)	mass density ([1]; 313.15 K)	speed of sound ([1]; 318.15 K)	mass density ([1]; 318.15 K)	speed of sound ([1]; 323.15 K)	mass density ([1]; 323.15 K)	molar heat capacity at constant pressure ([2]; 298.15 K)	molar heat capacity at constant pressure ([2]; 303.15 K)	molar heat capacity at constant pressure ([2]; 308.15 K)	molar heat capacity at constant pressure ([2]; 313.15 K)	molar heat capacity at constant pressure ([2]; 318.15 K)	molar heat capacity at constant pressure ([2]; 323.15 K)	also measured
CCCC[n+]1ccn(C)c1.O=S(=O)([N-]S(=O)(=O)C(F)(F)F)C(F)(F)F	1227.8 ± 1.5 m/s	1437.12 ± 1.1 kg/m3	1216.7 ± 1.5 m/s	1432.51 ± 1.1 kg/m3	1205.8 ± 1.5 m/s	1427.43 ± 1.1 kg/m3	1194.9 ± 1.5 m/s	1422.86 ± 1.1 kg/m3	1184.2 ± 1.5 m/s	1417.91 ± 1.1 kg/m3	1173.6 ± 1.5 m/s	1413.58 ± 1.1 kg/m3	567.22 ± 22 J/K/mol	569.85 ± 22 J/K/mol	572.64 ± 22 J/K/mol	575.47 ± 22 J/K/mol	578.38 ± 22 J/K/mol	581.52 ± 23 J/K/mol	–
CCCC[n+]1ccn(C)c1.O=S(=O)([N-]S(=O)(=O)C(F)(F)F)C(F)(F)F + COCCO	–	–	–	–	–	–	–	–	–	–	–	–	–	–	–	–	–	–	speed of sound ([3]; 298.15 K): 1227.8 ± 1.5 m/s; mass density ([3]; 298.15 K): 1437.12 ± 1.1 kg/m3; speed of sound ([3]; 303.15 K): 1216.7 ± 1.5 m/s; mass density ([3]; 303.15 K): 1432.51 ± 1.1 kg/m3; speed of sound ([3]; 308.15 K): 1205.8 ± 1.5 m/s; mass density ([3]; 308.15 K): 1427.43 ± 1.1 kg/m3; speed of sound ([3]; 313.15 K): 1194.9 ± 1.5 m/s; mass density ([3]; 313.15 K): 1422.86 ± 1.1 kg/m3; speed of sound ([3]; 318.15 K): 1184.2 ± 1.5 m/s; mass density ([3]; 318.15 K): 1417.91 ± 1.1 kg/m3; speed of sound ([3]; 323.15 K): 1173.6 ± 1.5 m/s; mass density ([3]; 323.15 K): 1413.58 ± 1.1 kg/m3
COCCO [2-methoxyethan-1-ol]	1341.8 ± 1.5 m/s	960.31 ± 1 kg/m3	1324.1 ± 1.5 m/s	955.71 ± 1 kg/m3	1307.3 ± 1.5 m/s	951.08 ± 1 kg/m3	1292 ± 1.5 m/s	946.41 ± 1 kg/m3	1274.2 ± 1.5 m/s	941.72 ± 1 kg/m3	1259.4 ± 1.5 m/s	936.99 ± 1 kg/m3	175.32 ± 6.8 J/K/mol	176.9 ± 6.8 J/K/mol	178.41 ± 6.9 J/K/mol	179.96 ± 7 J/K/mol	181.45 ± 7 J/K/mol	183.02 ± 7.1 J/K/mol	–
